Values after ≈ are worked out from the molar mass of the structure shown.
Tests used:
[1] = system: P. aeruginosa MUW 700 AmpC(+); experiment: MIC of tested agent alone, microdilution; assay type: cell-based; details: Pseudomonas aeruginosa; read-out: MIC of agent alone
Summary of the method: (§1)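 Broth microdilution checkerboard: β-lactam in seven two-fold dilutions (1–64 mg/L) against tested agent or PBA in three two-fold dilutions (4–16 mg/L). Antibiotic MICs were read at each agent level, with agent-alone MICs run in parallel by microdilution.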

E. coli 76 KPC-2(+) = experiment: MIC of tested agent alone, microdilution; assay type: cell-based; details: Escherichia coli; read-out: MIC of agent alone
Summary of the method: as §1

[2] = system: K. pneumoniae 83 KPC-3(+), CTX-M-3(+); experiment: MIC of tested agent alone, microdilution; assay type: cell-based; details: Klebsiella pneumoniae; read-out: MIC of agent alone
Summary of the method: as §1

[3] = system: K. pneumoniae ATCC BAA-1705 KPC-2(+); experiment: MIC of tested agent alone, microdilution; assay type: cell-based; details: Klebsiella pneumoniae, ATCCBAA1705; read-out: MIC of agent alone
Summary of the method: as §1

E. coli 77 CMY-2(+) = experiment: MIC of tested agent alone, microdilution; assay type: cell-based; details: Escherichia coli; read-out: MIC of agent alone
Summary of the method: as §1

[4] = system: K. pneumoniae 81 KPC-3(+); experiment: MIC of tested agent alone, microdilution; assay type: cell-based; details: Klebsiella pneumoniae; read-out: MIC of agent alone
Summary of the method: as §1

[5] = system: P. aeruginosa MUW 700 cAmpC-positive; experiment: combination disc test CDT-AmpC; assay type: cell-based; details: Pseudomonas aeruginosa, read-out: Diameter of inhibition zone, CAZ-30 disc with agent; for zone of inhibition at 300 µg/disc: agent 0.3 mg per disc
B. subtilis ATCC 6633 = experiment: direct antimicrobial activity (disc-diffusion); assay type: cell-based; details: Bacillus subtilis, ATCC6633; 0.4 mg per disc, 9 mm disc (linezolid 0.03 mg, 6 mm disc); - no zone; read-out: Diameter of inhibition zone
Summary of the method: (§2)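 Testing of direct antimicrobial action relied on CLSI and EUCAST protocols, namely disc diffusion, MIC and cidal-concentration determinations. Each disc carried 0.4 mg of test agent.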

[6] = system: K. pneumoniae ATCC BAA 1705 KPC-2-positive; experiment: combination disc test CDT-KPC; assay type: cell-based; details: Klebsiella pneumoniae, BAA1705, read-out: Diameter of inhibition zone, MEM-10 disc with agent; for zone of inhibition at 300 µg/disc: agent 0.3 mg per disc
[7] = system: E. coli 77 CMY-2-positive; experiment: checkerboard microdilution, antibiotic plus tested agent; assay type: cell-based, Escherichia coli
Summary of the method: (§3)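 β-lactam 1–64 mg/L × agent/PBA 4–16 mg/L checkerboard; meropenem vs carbapenemase producers, ceftazidime vs AmpC producer; imipenem, ertapenem added for selected agents. Readout: combination MICs, FICI (average and lowest); off-scale MICs taken as next doubling.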

[8] = MTT-based viability assay; assay type: cell-based; details: human, MRC-5 human fibroblasts, 72 h, read-out: Viability of MRC-5 cells (% of viable cells ± SD)
Summary of the method: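 MRC-5 human fibroblasts grown in MEME with 10% FBS at 37 °C, 5% CO2, tested by MTT with absorbance read at 570 nm. Viability given as percent of untreated control cells, in triplicate.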

[9] = system: P. aeruginosa MUW 700 cAmpC-positive; experiment: checkerboard microdilution, antibiotic plus tested agent; assay type: cell-based, Pseudomonas aeruginosa
Summary of the method: as §3

[10] = system: K. pneumoniae ATCC 700603 ESBL-positive; experiment: combination disc test CDT-ESBL; assay type: cell-based; details: Klebsiella pneumoniae, ATCC700603, read-out: Diameter of inhibition zone, CAZ-30 disc with agent; for zone of inhibition at 300 µg/disc: agent 0.3 mg per disc
C. krusei ATCC 6258 = experiment: antifungal activity (disc-diffusion, MIC, MFC); assay type: cell-based, Candida krusei; details: Pichia kudriavzevii, ATCC6258; for MIC: fluconazole by Etest
Summary of the method: as §2

S. aureus ATCC 6538P = experiment: direct antimicrobial activity (disc-diffusion, MIC, MBC); assay type: cell-based; details: Staphylococcus aureus, ATCC6538P; for zone of inhibition at 0.4 mg/disc: 0.4 mg per disc, 9 mm disc (linezolid 0.03 mg, 6 mm disc), - no zone, read-out: Diameter of inhibition zone
Summary of the method: as §2

[11] = system: S. epidermidis ATCC 12228; experiment: as above; assay type: cell-based; details: Staphylococcus epidermidis, ATCC12228; for zone of inhibition at 0.4 mg/disc: 0.4 mg per disc, 9 mm disc (linezolid 0.03 mg, 6 mm disc), - no zone, read-out: Diameter of inhibition zone
Summary of the method: as §2

E. faecium ATCC 6057 = experiment: as above; assay type: cell-based; details: Enterococcus faecium, ATCC6057
Summary of the method: as §2

[12] = system: S. aureus ATCC 43300 MRSA; experiment: as above; assay type: cell-based; details: Staphylococcus aureus
Summary of the method: as §2

E. faecalis ATCC 29212 = experiment: as above; assay type: cell-based; details: Enterococcus faecalis, ATCC29212
Summary of the method: as §2

[13] = 0.4 mg per disc, 9 mm disc (linezolid 0.03 mg, 6 mm disc), - no zone, read-out: Diameter of inhibition zone

Row | Structure (SMILES) | MIC [1] [µg/mL] | MIC (E. coli 76 KPC-2(+)) [µg/mL] | MIC [2] [µg/mL] | MIC [3] [µg/mL] | MIC (E. coli 77 CMY-2(+)) [µg/mL] | MIC [4] [µg/mL] | zone of inhibition at 0.4 mg/disc (B. subtilis ATCC 6633) [mm] | Average FICI with ceftazidime [7] | The lowest FICI with ceftazidime [7] | Average FICI with ceftazidime [9] | Interpretation of the average FICI with ceftazidime [9] | Interpretation of the lowest FICI with ceftazidime [9] | The lowest FICI with ceftazidime [9] | MIC (C. krusei ATCC 6258) [µg/mL] | MIC (S. aureus ATCC 6538P) [µg/mL] | MIC [11] [µg/mL] | zone of inhibition at 0.4 mg/disc [11] [mm] | MIC (E. faecium ATCC 6057) [µg/mL] | MIC [12] [µg/mL] | MIC (E. faecalis ATCC 29212) [µg/mL] | also measured
1 | OB(O)c1cc(F)c(B(O)O)cc1F [1e] | 200 | 100 | 200 | 200 | 100 | 200 | 28 | 0.17 | 0.14 | 0.38 | S (FICI ≤ 0.5, synergy) | S (FICI ≤ 0.5, synergy) | 0.29 | > 400 | 12.5 (≈ 62 µM) | 25 (≈ 124 µM) | 21 | 100 (≈ 496 µM) | 25 (≈ 124 µM) | 200 (≈ 991 µM) | zone of inhibition at 100 µg/disc ([5]; agent 0.1 mg per disc): 18 mm; zone of inhibition at 100 µg/disc ([6]; agent 0.1 mg per disc): 11 mm; viability at 72 h, 12.5 mg/L [8]: 107 ± 3.3%; viability at 72 h, 25 mg/L [8]: 105 ± 10%; viability at 72 h, 50 mg/L [8]: 117 ± 4.6%; zone of inhibition at 100 µg/disc ([10]; agent 0.1 mg per disc): 15 mm; zone of inhibition at 0.4 mg/disc (C. krusei ATCC 6258; 0.4 mg per disc, 9 mm disc (fluconazole 0.025 mg, 6 mm disc), - no zone, read-out: Diameter of inhibition zone): 16 mm; zone of inhibition at 0.4 mg/disc (S. aureus ATCC 6538P): 20 mm; zone of inhibition at 0.4 mg/disc (E. faecium ATCC 6057; [13]): 14 mm; zone of inhibition at 0.4 mg/disc [12, 13]: 26 mm; zone of inhibition at 0.4 mg/disc (E. faecalis ATCC 29212; [13]): 15 mm
2 | OB(O)c1ccsc1B(O)O [5a, thiophene-2,3-diboronic acid] | > 400 | > 400 | > 400 | > 400 | > 400 | > 400 | 15 | 0.43 | 0.27 | 0.30 | S (FICI ≤ 0.5, synergy) | S (FICI ≤ 0.5, synergy) | 0.15 | > 400 | 100 (≈ 582 µM) | 400 (≈ 2330 µM) | 13 | > 400 | 400 (≈ 2330 µM) | 100 (≈ 582 µM) | zone of inhibition at 300 µg/disc [5]: 22 mm; zone of inhibition at 300 µg/disc [6]: 15 mm; viability at 72 h, 12.5 mg/L [8]: 88.6 ± 9.2%; viability at 72 h, 25 mg/L [8]: 87.1 ± 1.6%; viability at 72 h, 50 mg/L [8]: 79.2 ± 5.1%; zone of inhibition at 300 µg/disc [10]: 16 mm
3 | OB(O)c1ccc(B(O)O)cc1 [1a] | > 400 | > 400 | > 400 | > 400 | > 400 | > 400 | 17 | 0.30 | 0.15 | 0.16 | S (FICI ≤ 0.5, synergy) | S (FICI ≤ 0.5, synergy) | 0.08 | > 400 | 200 (≈ 1210 µM) | 400 (≈ 2410 µM) | 14 | 400 (≈ 2410 µM) | 400 (≈ 2410 µM) | 200 (≈ 1210 µM) | zone of inhibition at 300 µg/disc [5]: 23 mm; zone of inhibition at 300 µg/disc [6]: 19 mm; viability at 72 h, 16 mg/L ([8]; 16 mg/L): 113 ± 12.5%; viability at 72 h, 32 mg/L ([8]; 32 mg/L): 103 ± 11.8%; viability at 72 h, 64 mg/L ([8]; 64 mg/L): 89.9 ± 11.4%; zone of inhibition at 300 µg/disc [10]: 17 mm
4 | OB(O)c1cccc(B(O)O)c1 [2a] | > 400 | > 400 | > 400 | > 400 | > 400 | > 400 | 18 | 0.22 | 0.15 | 0.18 | S (FICI ≤ 0.5, synergy) | S (FICI ≤ 0.5, synergy) | 0.14 | > 400 | 100 (≈ 603 µM) | 200 (≈ 1210 µM) | 21 | > 400 | 400 (≈ 2410 µM) | 200 (≈ 1210 µM) | zone of inhibition at 300 µg/disc [5]: 21 mm; zone of inhibition at 300 µg/disc [6]: 15 mm; viability at 72 h, 12.5 mg/L [8]: 94.4 ± 2.2%; viability at 72 h, 25 mg/L [8]: 75.2 ± 10.3%; viability at 72 h, 50 mg/L [8]: 73.1 ± 13.6%; zone of inhibition at 300 µg/disc [10]: 16 mm; zone of inhibition at 0.4 mg/disc (S. aureus ATCC 6538P): 20 mm
